From patent publication US10072014B2 (Janssen Pharmaceutica NV, priority 2014, dated 2018) come the findings set out here.

Like-named read-outs stand apart in the source and are kept apart here.

In one assay the test system is rats. Description: Reversal of the effect of the mGluR2 PAM JNJ-42153605-induced inhibition of scopolamine-induced hyperlocomotion. The format is in vivo. The following applies: Rattus norvegicus, PO. As for the experimental part: 2) Reversal of the Effect of the mGluR2 PAM JNJ-42153605-induced Inhibition of Scopolamine-induced Hyperlocomotion Apparatus
Motor activity was measured in microprocessor-based motor activity arenas (closed gray PVC cylinders with a height of 39 cm and a diameter of 31 cm). Each arena was placed on an infrared LED (8×8 LEDs) lit box (white PVC squared box; 40×40 cm^2; height 12.5 cm. An infrared-sensitive tube camera and a white light source were mounted to the ceiling above the observation chamber to track the animal. The total distance traveled (cm) was recorded and analyzed using the Noldus Ethovision XT Video Tracking System (Version 7.0.418; Noldus, Wageningen, The Netherlands). The intensity of the light within the activity cages (measured in the centre at the level of the floor) ranged between 4 and 8 LUX.
The rats were pretreated with test compound or vehicle at 60 min before the start of the activity recordings and placed into individual cages. The rats were challenged with JNJ-42153605 (3-(cyclopropylmethyl)-7-(4-phenylpiperidin-1-yl)-8-(trifluoromethyl)-[1,2,4]triazolo[4,3-a]pyridine; WO2010/130424; Cid et al. J. Med. Chem. 2012, 55, 8770-8789) (20 mg/kg, i.v.) 30 min before the start of the activity recording combined with scopolamine (0.16 mg/kg, i.v.) just before the start of the activity measurements. Immediately after the injection of scopolamine, the rats were placed into the activity monitors and total distance traveled over the first 30 min was measured.
Solvent-pretreated Control Rats.
Animals receiving the combination of JNJ-42153605 and scopolamine (n=433) almost always traveled a distance of less than 1500 cm (<1500 cm) (only 2.5% of the control rats traveled a distance of more than 1500 cm (>1500 cm)). On the other hand, animals challenged with scopolamine alone (n=215) always traveled a total distance of more than 1500 cm (>1500 cm) and almost always (in 95.8% of the rats) a distance of more than 4400 cm (>4400 cm). […] For reversal of the inhibitory effect of JNJ-42153605 on the scopolamine-induced hyperlocomotion, the following all-or-none criteria were adopted: (1) reversal: total distance>1500 cm.

A further assay concerns the target T1, human mGlu2 receptor (Homo sapiens, UniProt Q14416).
T1 construct: expressed in transfected cells; host or cells: CHO cells
Description: [35S]GTPγS binding assay, negative allosteric modulation of mGluR2. The format is biochemical. The source says:
The compounds provided in the present invention are negative allosteric modulators of mGluR2. These compounds appear to inhibit glutamate responses by binding to an allosteric site other than the glutamate binding site. The response of mGluR2 to a concentration of glutamate is decreased when compounds of Formula (I) are present. Compounds of Formula (I) are expected to have their effect substantially at mGluR2 by virtue of their ability to reduce the function of the receptor. The effects of negative allosteric modulators tested at mGluR2 using the [^35S]GTPγS binding assay method described below and which is suitable for the identification of such compounds, and more particularly the compounds according to Formula (I), are shown in Table 7.
1) [^35S]GTPγS Binding Assay
The [^35S]GTPγS binding assay is a functional membrane-based assay used to study G-protein coupled receptor (GPCR) function whereby incorporation of a non-hydrolysable form of GTP, [^35S]GTPγS (guanosine 5′-triphosphate, labelled with […] ^35S), is measured. The G-protein a subunit catalyzes the exchange of guanosine 5′-diphosphate (GDP) by guanosine triphosphate (GTP) and on activation of the GPCR by an agonist, [^35S]GTPγS, becomes incorporated and cannot be cleaved to continue the exchange cycle (Harper (1998) Current Protocols in Pharmacology 2.6.1-10, John Wiley & Sons, Inc.). […] Here we describe the use of the [^35S]GTPγS binding assay using membranes from cells transfected with the human mGlu2 receptor and adapted from Schaffhauser et al. (Molecular Pharmacology, 2003, […]) for the detection of the negative allosteric modulation (NAM) properties of the compounds of this invention.
CHO-cells were cultured to pre-confluence and stimulated with 5 mM butyrate for 24 h. Cells were then collected by scraping in PBS and cell suspension was centrifuged (10 min at 4000 RPM in benchtop centrifuge). Supernatant was discarded and pellet gently resuspended in 50 mM Tris-HCl, pH 7.4 by mixing with an Ultra Turrax homogenizer. The suspension was centrifuged at 12,400 RPM (Sorvall F14S-6x250Y) for 10 minutes and the supernatant discarded. The pellet was homogenized in 5 mM Tris-HCl, pH 7.4 using an Ultra Turrax homogenizer and centrifuged again (13,000 RPM, 20 min, 4° C.). The final pellet was resuspended in 50 mM Tris-HCl, pH 7.4 and stored at −80° C. in appropriate aliquots before use. Protein concentration was determined by the Bradford method (Bio-Rad, USA) with bovine serum albumin as standard.
[^35S]GTPγS Binding Assay
Measurement of mGluR2 negative allosteric modulatory activity of test compounds was performed as follows. Test compounds and glutamate were diluted in assay buffer containing 10 mM HEPES acid, 10 mM HEPES salt, pH 7.4, 100 mM NaCl, 3 mM MgCl2 and 10 μM GDP. Human mGlu2 receptor-containing membranes were thawed on ice and diluted in assay buffer supplemented with 18 μg/ml saponin. Membranes were pre-incubated with compound together with a predefined (˜EC80) concentration of glutamate (60 μM) for 30 min at 30° C. After addition of [^35S]GTPγS (f.c. 0.1 nM), assay mixtures were shaken briefly and further incubated to allow [^35S]GTPγS incorporation on activation (30 minutes, 30° C.). Final assay mixtures contained 7 μg of membrane protein in 10 mM HEPES acid, 10 mM HEPES salt, pH 7.4, 100 mM NaCl, 3 mM MgCl2, 10 μM GDP and 10 μg/ml saponin. Total reaction volume was 200 μl. Reactions were terminated by rapid filtration through Unifilter-96 GF/B plates (Perkin Elmer, Massachusetts, USA) using a 96-well filtermate universal harvester. Filters were washed 6 times with ice-cold 10 mM NaH2PO4/10 mM Na2HPO4, pH 7.4. Filters were then air-dried, and 30 μl of liquid scintillation cocktail (Microscint-O) was added to each well. Membrane-bound radioactivity was counted in a Topcount.
The concentration-response curves of representative compounds of the present invention were generated using the Lexis software interface (developed at J&J). […]
On the technique in general: GTPγS resists hydrolysis and so accumulates on activated G proteins.

T1 sequence (Q14416 19-872): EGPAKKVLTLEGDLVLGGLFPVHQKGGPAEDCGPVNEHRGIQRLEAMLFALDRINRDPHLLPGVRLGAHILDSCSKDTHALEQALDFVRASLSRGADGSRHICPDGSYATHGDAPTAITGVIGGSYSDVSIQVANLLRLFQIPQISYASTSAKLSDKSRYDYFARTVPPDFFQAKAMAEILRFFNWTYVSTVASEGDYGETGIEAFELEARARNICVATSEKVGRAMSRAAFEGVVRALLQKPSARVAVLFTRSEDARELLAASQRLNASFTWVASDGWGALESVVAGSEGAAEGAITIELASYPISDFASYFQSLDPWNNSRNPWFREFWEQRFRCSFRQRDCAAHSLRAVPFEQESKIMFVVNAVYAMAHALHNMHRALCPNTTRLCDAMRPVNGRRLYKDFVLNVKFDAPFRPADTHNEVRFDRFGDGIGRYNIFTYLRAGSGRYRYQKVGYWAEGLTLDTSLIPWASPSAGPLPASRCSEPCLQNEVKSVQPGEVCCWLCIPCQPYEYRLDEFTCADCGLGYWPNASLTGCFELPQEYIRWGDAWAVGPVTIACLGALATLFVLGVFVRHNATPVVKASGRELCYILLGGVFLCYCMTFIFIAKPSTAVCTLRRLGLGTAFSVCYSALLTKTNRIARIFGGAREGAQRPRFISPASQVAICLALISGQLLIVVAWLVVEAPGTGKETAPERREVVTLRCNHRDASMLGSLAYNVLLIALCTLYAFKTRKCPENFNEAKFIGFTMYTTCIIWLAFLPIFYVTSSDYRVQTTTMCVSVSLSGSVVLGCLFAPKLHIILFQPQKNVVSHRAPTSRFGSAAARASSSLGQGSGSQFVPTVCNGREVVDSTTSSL

As a reminder, the ED50 is the dose at which the effect has come halfway, by size or by number of responders. The Emax is the maximal effect, on the per cent scale that the assay sets. With `Cc1ncc(-c2cnn3c2C(=O)N(c2ccc(C(F)(F)F)c(Cl)c2)C[C@@H]3C)[nH]1` [Compound 27], the median effective dose (ED50) is more than 2.5 mg/kg in the assay with rats (criterion for reversal: total distance >1500 cm, read-out: ED50 SCOP JNJ-42153605) and 1.25 mg/kg in the assay on rats (more sensitive criterion for reversal: total distance >1300 cm, read-out: ED50 SCOP JNJ-42153605, more sensitive criterion). Moreover, the maximum response (Emax) at human mGlu2 receptor (maximal % inhibition relative to the control glutamate response (EC80 glutamate), read-out: GTPγS-hmGluR2 anGT Emax) came to 106%. Also, the IC50 at human mGlu2 receptor (membranes from CHO cells transfected with human mGlu2 receptor, glutamate 60 μM (~EC80), read-out: GTPγS-hmGluR2 anGT pIC50 (converted)) was 3.47 nM.
